Like-named read-outs stand apart in the source and are kept apart here. Starred links: 1 amine or outer side, 2 acyl side, 3 side chain; linkers in the order of their positions; H or OH if unused. Non-standard residues stand in square brackets, D forms with d. Residues, ends and D or L forms follow the SMILES beside them. No end group written: not given here. X1 = O=C([C@H](Cc1ccc2ccc3cccc4ccc1c2c34)N[*:1])[*:2]; Phe(4-Cl) = N[C@@H](Cc1ccc(Cl)cc1)C(=O)O; 2Nal = N[C@@H](Cc1ccc2ccccc2c1)C(=O)O; Adipoyl = O=C(CCCCC(=O)[*:2])[*:1]; Cha = N[C@@H](CC1CCCCC1)C(=O)O; NMeA = CN[C@@H](C)C(=O)O; Dap = NC[C@H](N)C(=O)O
Key:
APJ [1] = target: T1, APJ (Homo sapiens, UniProt P35414); test: Inhibitory activity on forskolin-stimulated cAMP production in CHO-A10 clone 6 cells; format: cell-based
T1 construct: expressed in transfected cells; host or cells: CHO (CHO-A10; clone 6 for the cAMP assay)
T1 sequence (P35414 1-380): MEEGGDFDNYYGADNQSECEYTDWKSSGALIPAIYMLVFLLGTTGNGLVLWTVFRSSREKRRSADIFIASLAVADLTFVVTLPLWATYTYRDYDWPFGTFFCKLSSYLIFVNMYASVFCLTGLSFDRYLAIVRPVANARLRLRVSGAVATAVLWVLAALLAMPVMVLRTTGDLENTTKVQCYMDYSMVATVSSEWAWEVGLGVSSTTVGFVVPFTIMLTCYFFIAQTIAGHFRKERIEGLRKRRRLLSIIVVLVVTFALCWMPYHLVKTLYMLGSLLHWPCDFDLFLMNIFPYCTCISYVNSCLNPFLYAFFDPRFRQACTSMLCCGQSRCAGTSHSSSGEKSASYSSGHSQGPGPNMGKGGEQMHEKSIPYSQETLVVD
Procedure: Measurement of an Inhibitory Activity on Forskolin-Stimulated cAMP Production
Hanks' balanced salt solution (HBSS) containing 0.2 mM 3-isobutyl-1-methylxanthine (IBMX) and 0.05% bovine serum albumin was prepared as an assay buffer, and each well was washed twice with 500 μl assay buffer and pre-incubated at 37° C. for 30 minutes. Further, each well was washed once with 500 μl assay buffer, and a sample dissolved in the assay buffer containing 1 μM forskolin was added at a volume of 500 μl/well and incubated at 37° C. for 30 minutes. Wells incubated with the assay buffer not containing forskolin were prepared in the same manner in order to determine the basal level of cellular cAMP production, while wells incubated with the assay buffer containing forskolin were also prepared in order to determine the maximum level of cAMP production stimulated with forskolin. After incubation was finished, each well was washed once with 500 μl assay buffer, and 500 μl lysis buffer 1B attached to a cAMP EIA system from Amersham was added to each well, to extract cAMP. According to the protocol of the kit, 100 μl of each extract was used to determine the level of cAMP. For the inhibitory activity of the sample on cAMP production, the difference (inhibited cAMP production) between the maximum level and the level of cAMP in the sample-containing wells was determined, and the inhibitory activity was expressed as percentage relative to the increased level of cAMP production stimulated with forskolin (that is, the difference between the maximum level and basal level), and from this dose-reaction curve, the EC50 was determined.

APJ [2] = target: T1, APJ; test: Receptor binding assay-2 (compound in Reference Example 2 used)
Procedure: This product was mixed with an equal volume of an assay buffer (50 mM Tris-HCl/pH 7.5, 5 mM EDTA, 0.5 mM PMSF, 20 μg/ml leupeptin, 0.1 μg/ml pepstatin A, 4 μg/ml E-64 (Peptide Research Laboratory, Co.), 0.1% bovine serum albumin) and stored at −30° C. before use.
CHO-A10 cells were cultured, recovered with PBS containing 5 mM EDTA from a culture vessel, and suspended in the above-mentioned assay buffer not containing bovine serum albumin. The cells were homogenized 3 times at 12,000 rpm for 15 seconds by a Polytron homogenizer (manufactured by Kinematica Inc.) and then centrifuged (1000×g, 4° C., 10 minutes), and the supernatant was recovered. The precipitates were subjected again to the same procedure as above, and the respective supernatants were combined and centrifuged at 100,000×g, 4° C. for 1 hour, to recover precipitates (membrane fraction). The membrane fraction was suspended again in a small amount of the buffer, homogenized with a Teflon homogenizer and stored at −80° C. before use.
Binding assay was carried out under the following conditions. […] Measurement of non-specific binding was carried out using a well containing 1 μM unlabeled compound in place of the test sample. After the incubation was finished, a cell harvester (Packard) adapted to 96 wells and a filter unit (GF/C, Packard) were used for separation thereby capturing the membrane fraction on the filter. After the filter was sufficiently dried, Microcinti 0 (Packard) was added thereto, and using Top Count (Packard), the amount of the labeled material captured together with the membrane fraction on the filter was measured.

[3] = compound in Reference Example 2 used as ligand, read-out: IC50

| EC50 (APJ [1]; read-out: EC50) [nM] | IC50 (APJ [2]; [3]) [nM] | Compound | EC50 (APJ [1]) [nM] | IC50 (APJ [2]) [nM] |
| --- | --- | --- | --- | --- |
| 0.42 | 0.13 | CC(C)C[C@H](NC(=O)[C@H](CCCNC(=N)N)NC(=O)[C@@H]1CCCN1C(=O)[C@@H](N)CCCNC(=N)N)C(=O)N[C@@H](CO)C(=O)N[C@@H](CNC(=O)CCCCC(=O)O)C(=O)N[C@@H](CCCNC(=N)N)C(=O)NCC(=O)N1CCC[C@H]1C(=O)N[C@@H](CC1CCCCC1)C(=O)N1CCC[C@H]1C(=O)N[C@@H](Cc1ccc(Cl)cc1)C(=O)O [Compound in Ex. 68, Arg-Pro-Arg-Leu-Ser-Dap(Adi)-Arg-Gly-Pro-Cha-Pro-Phe(Cl)] (H-RPRLS[Dap](Adipoyl)RGP[Cha]P[Phe(4-Cl)]-OH; N-terminus and C-terminus assumed) |  |  |
| 0.37 | 0.61 | CSCC[C@H](NC(=O)[C@@H]1CCCN1C(=O)CNC(=O)[C@H](CCCCN)NC(=O)[C@H](Cc1c[nH]cn1)NC(=O)[C@H](CO)NC(=O)[C@H](CC(C)C)NC(=O)[C@H](CCCNC(=N)N)NC(=O)[C@@H]1CCCN1C(=O)[C@@H](N)CCCNC(=N)N)C(=O)N[C@@H](Cc1ccc2ccccc2c1)C(=O)O [Compound in Ex. 40] (H-RPRLSHKGPM[2Nal]-OH) |  |  |
| 0.39 | 0.036 | CSCC[C@H](NC(=O)[C@@H]1CCCN1C(=O)CNC(=O)[C@H](CCCNC(=N)N)NC(=O)[C@H](C)NC(=O)[C@H](CO)NC(=O)[C@H](CC(C)C)NC(=O)[C@H](CCCNC(=N)N)NC(=O)[C@@H]1CCCN1C(=O)[C@H](CCCNC(=N)N)NC(=O)[C@H](CCC(N)=O)NC(=O)[C@H](CCCNC(=N)N)NC(=O)[C@@H](N)CCCNC(=N)N)C(=O)N1CCC[C@H]1C(=O)N[C@@H](Cc1ccccc1)C(=O)O [Compound in Ex. 17] |  |  |

More lines, now with the values behind:

| Compound | EC50 (APJ [1]; read-out: EC50) [nM] | IC50 (APJ [2]; [3]) [nM] | EC50 (APJ [1]) [nM] | IC50 (APJ [2]) [nM] |
| --- | --- | --- | --- | --- |
| CC(C)C[C@H](NC(=O)[C@H](CCCNC(=N)N)NC(=O)[C@@H]1CCCN1C(=O)[C@@H](N)CCCNC(=N)N)C(=O)N[C@@H](CO)C(=O)N[C@@H](Cc1c[nH]cn1)C(=O)N[C@@H](C)C(=O)NCC(=O)N1CCC[C@H]1C(=O)N[C@@H](CC1CCCCC1)C(=O)N1CCC[C@H]1C(=O)N[C@@H](Cc1ccc(Cl)cc1)C(=O)O [Compound in Ex. 56] (H-RPRLSHAGP[Cha]P[Phe(4-Cl)]-OH; N-terminus and C-terminus assumed) | 0.58 | 0.22 |  |  |
| CSCC[C@H](NC(=O)[C@H](C)N(C)C(=O)CNC(=O)[C@H](CCCNC(=N)N)NC(=O)[C@H](C)NC(=O)[C@H](CO)NC(=O)[C@H](CC(C)C)NC(=O)[C@H](CCCNC(=N)N)NC(=O)[C@@H]1CCCN1C(=O)[C@@H](N)CCCNC(=N)N)C(=O)N1CCC[C@H]1C(=O)N[C@@H](Cc1ccc(Cl)cc1)C(=O)O [Compound in Ex. 55] (H-RPRLSARG[NMeA]MP[Phe(4-Cl)]-OH; N-terminus and C-terminus assumed) | 0.27 | 0.09 |  |  |
| CC(C)C[C@H](NC(=O)[C@H](CCCNC(=N)N)NC(=O)[C@@H]1CCCN1C(=O)[C@@H](N)CCCNC(=N)N)C(=O)N[C@@H](CO)C(=O)N[C@@H](C)C(=O)N[C@@H](CCCNC(=N)N)C(=O)NCC(=O)N1CCC[C@H]1C(=O)N[C@@H](CC1CCCCC1)C(=O)N[C@@H](Cc1ccc2ccc3cccc4ccc1c2c34)C(=O)O [Compound in Ex. 60] (H-RPRLSARGP[Cha][X1]-OH) |  |  | 1.1 | 0.8 |
| RPRLFARGPMF [Compound in Ex. 47] | 0.36 | 1.8 |  |  |
| CSCC[C@H](NC(=O)[C@@H]1CCCN1C(=O)CNC(=O)[C@H](CCCCN)NC(=O)[C@H](Cc1c[nH]cn1)NC(=O)[C@H](CO)NC(=O)[C@H](CC(C)C)NC(=O)[C@H](CCCNC(=N)N)NC(=O)[C@@H]1CCCN1C(=O)[C@H](CCCNC(=N)N)NC(=O)[C@H](Cc1ccccc1)NC(=O)[C@H](CCCNC(=N)N)NC(=O)[C@@H](N)CCCNC(=N)N)C(=O)N1CCC[C@H]1C(=O)N[C@@H](Cc1ccccc1)C(=O)O [Compound in Ex. 33] | 1.1 | 0.37 |  |  |

Reference: US20040116336A1, “Peptide derivatives” (priority 2002, published 2004)
